Results taken from the supplement of paper PMC10627819.

What was measured:
[1] = tested on: B. subtilis 168; test: fitness (endpoint OD595 vs no drug) (fraction); higher = more growth
Method in brief: (§1)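 Plates with 384 wells were inoculated at OD595 0.01 using 30 µl of TSB, LB Lennox or CY, or 55 µl for S. pneumoniae. Incubation was at 37 °C, with OD595 measured every 30 min for 14 h. Fitness is the stationary-phase transition optical density over the robust mean of no-drug control wells, after first-reading background subtraction; it is capped at 1.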

[2] = tested on: S. pneumoniae D39V; test: as above
Method in brief: as §1

[3] = tested on: B. subtilis 168; test: Bliss interaction score (quartile over a dose matrix) (fitness difference); higher = more antagonism (negative = synergy)
Method in brief: (§2)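 Fitness was defined as normalised growth: OD595 at the start of stationary phase divided by the plate's robust no-drug mean and capped at 1. Single-drug fitness was inferred from combination measurements. The Bliss score is observed fitness minus the product of the single-drug values, summarised by quartiles across technical, biological and donor/recipient replicates.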

[4] = tested on: S. aureus DSM 20231; test: as above
Method in brief: as §2

[5] = tested on: S. aureus Newman; test: as above
Method in brief: as §2

[6] = tested on: S. pneumoniae D39V; test: as above
Method in brief: as §2
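Wherever Bliss interaction score (quartile over a dose matrix) is given: first quartile when negative (synergy) and third quartile when positive (antagonism).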

C[C@H]1COc2c(N3CCN(C)CC3)c(F)cc3c(=O)c(C(=O)O)cn1c23 [Levofloxacin] + CN[C@@H]1[C@H](O)[C@H](NC)[C@H]2O[C@@]3(O)C(=O)C[C@@H](C)O[C@H]3O[C@@H]2[C@H]1O [Spectinomycin]
fitness, one replicate
Settings | first compound 0.001 µg/mL | first compound 0.002 µg/mL | first compound 0.0039 µg/mL | first compound 0.2 µg/mL | first compound 0.4 µg/mL | first compound 0.8 µg/mL
[1], partner 2 µg/mL | 0.986 | 0.966 | 0.988 | – | – | –
[1], partner 4 µg/mL | 0.955 | 0.888 | ≥ 1 | – | – | –
[1], partner 8 µg/mL | 0.99 | 0.912 | ≥ 1 | – | – | –
[2], partner 4 µg/mL | – | – | – | 0.96 | 0.868 | 0.446
[2], partner 8 µg/mL | – | – | – | 0.9 | 0.804 | 0.508

fitness
Settings | first compound 0.0312 µg/mL | first compound 0.0625 µg/mL | first compound 0.125 µg/mL | first compound 0.1725 µg/mL | first compound 0.345 µg/mL | first compound 0.69 µg/mL
[1], partner 2 µg/mL | 0.036 | 0.0431 | 0.0402 | – | – | –
[1], partner 4 µg/mL | 0.0347 | 0.0352 | 0.0401 | – | – | –
[1], partner 8 µg/mL | 0.0234 | 0.0342 | 0.0261 | – | – | –
[2], partner 4 µg/mL | – | – | – | 0.875 | 0.808 | 0.41
[2], partner 8 µg/mL | – | – | – | 0.928 | 0.816 | 0.439
[2], partner 16 µg/mL | – | – | – | 0.835 | 0.737 | 0.396

Settings | Bliss interaction score
[3] | -0.0192
[4] | 0.0353
[5] | -0.0582
[6] | -0.0643

C[C@H]1COc2c(N3CCN(C)CC3)c(F)cc3c(=O)c(C(=O)O)cn1c23 [Levofloxacin] + CN[C@@H]1[C@H](O[C@H]2[C@H](O[C@H]3[C@H](O)[C@@H](O)[C@H](N=C(N)N)[C@@H](O)[C@@H]3N=C(N)N)O[C@@H](C)[C@]2(O)C=O)O[C@@H](CO)[C@H](O)[C@H]1O [Streptomycin]
fitness, one replicate
Settings | first compound 0.001 µg/mL | first compound 0.002 µg/mL | first compound 0.0039 µg/mL | first compound 0.2 µg/mL | first compound 0.4 µg/mL | first compound 0.8 µg/mL
[1], partner 2 µg/mL | 0.963 | 0.952 | 0.932 | – | – | –
[1], partner 4 µg/mL | ≥ 1 | 0.737 | 0.832 | – | – | –
[1], partner 8 µg/mL | 0.252 | 0.0282 | 0.047 | – | – | –
[2], partner 2 µg/mL | – | – | – | 0.955 | 0.855 | 0.346
[2], partner 16 µg/mL | – | – | – | 0.718 | 0.602 | 0.208

fitness
Settings | partner 2 µg/mL | partner 4 µg/mL | partner 8 µg/mL
[1], first compound 0.0312 µg/mL | 0.0408 | 0.0413 | 0.0242
[1], first compound 0.0625 µg/mL | 0.0475 | 0.0546 | 0.033
[1], first compound 0.125 µg/mL | 0.0446 | 0.0475 | 0.0333
[2], first compound 0.1725 µg/mL | 0.942 | 0.923 | 0.927
[2], first compound 0.2 µg/mL | – | 0.9 | 0.798
[2], first compound 0.345 µg/mL | 0.817 | 0.812 | 0.788
[2], first compound 0.4 µg/mL | – | 0.806 | 0.704
[2], first compound 0.69 µg/mL | 0.316 | 0.422 | 0.445
[2], first compound 0.8 µg/mL | – | 0.307 | 0.293

Settings | Bliss interaction score
[3] | 0.0365
[4] | -0.0487
[5] | 0.0694
[6] | -0.0992
